Results reported in PubChem BioAssay AID330 (DTP/NCI, 2004).
Where “and” joins values, the source holds several entries; their conditions need not be identical. Equal values may be shown once. Inconclusive results and toxic doses are left out.

Tested on: P388 leukemia ip, CD2F1 mice, survival T/C
Test: NCI In Vivo Anticancer Drug Screen. Data for tumor model P388 Leukemia (intraperitoneal) in CD2F1 (CDF1) mice
Settings: endpoint: median survival time, higher = longer survival
Method in brief: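 Mice carrying the transplanted tumor received test compound or vehicle. Survival was recorded in each group, and the value is the treated-group measurement divided by that of the vehicle-treated control group.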

O=C1NC2(CCCCC2)C(=O)N1CCN(CCCl)CCCl
T/C (dose: 0.62 mg/kg/injection, schedule: Q01DX005 (iv), vehicle: other): 108 % of control
T/C (dose: 0.75 mg/kg/injection, schedule: Q01DX009 (ip), vehicle: saline): 112 % of control and 114 % of control and 122 % of control
T/C (dose: 1.25 mg/kg/injection, schedule: Q01DX001 (iv), vehicle: other): 112 % of control
T/C (dose: 1.25 mg/kg/injection, schedule: Q01DX001 (oral), vehicle: other): 101 % of control
T/C (dose: 1.25 mg/kg/injection, schedule: Q01DX005 (iv), vehicle: other): 116 % of control
T/C (dose: 1.25 mg/kg/injection, schedule: Q01DX009 (ip), vehicle: saline with Tween-80): 124 % of control
T/C (dose: 1.5 mg/kg/injection, schedule: Q01DX005 (ip), vehicle: saline): 118 % of control and 119 % of control
T/C (dose: 1.5 mg/kg/injection, schedule: Q01DX005 (ip), vehicle: suspension in saline): 119 % of control
T/C (dose: 1.5 mg/kg/injection, schedule: Q01DX005 (iv), vehicle: suspension in saline): 101 % of control
T/C (dose: 1.5 mg/kg/injection, schedule: Q01DX009 (ip), vehicle: Klucel (hydroxypropylcellulose) (HPC)): 164 % of control
T/C (dose: 1.5 mg/kg/injection, schedule: Q01DX009 (ip), vehicle: other): 120 % of control
T/C (dose: 2.5 mg/kg/injection, schedule: Q01DX001 (ip), vehicle: other): 121 % of control
T/C (dose: 2.5 mg/kg/injection, schedule: Q01DX001 (iv), vehicle: other): 109 % of control
T/C (dose: 2.5 mg/kg/injection, schedule: Q01DX005 (iv), vehicle: clinical formulation): 115 % of control and 121 % of control
T/C (dose: 2.5 mg/kg/injection, schedule: Q01DX005 (iv), vehicle: other): 109 % of control
T/C (dose: 2.5 mg/kg/injection, schedule: Q01DX005 (oral), vehicle: other): 100 % of control
T/C (dose: 2.5 mg/kg/injection, schedule: Q01DX009 (ip), vehicle: clinical formulation): 152 % of control and 154 % of control and 180 % of control
T/C (dose: 2.5 mg/kg/injection, schedule: Q01DX009 (ip), vehicle: other): 151 % of control
T/C (dose: 2.5 mg/kg/injection, schedule: Q01DX009 (ip), vehicle: saline with Tween-80): 167 % of control
T/C (dose: 2.5 mg/kg/injection, schedule: Q01DX009 (oral), vehicle: other): 109 % of control
T/C (dose: 3.0 mg/kg/injection, schedule: Q01DX005 (iv), vehicle: suspension in saline): 105 % of control
T/C (dose: 3.0 mg/kg/injection, schedule: Q01DX009 (ip), vehicle: Klucel (hydroxypropylcellulose) (HPC)): 166 % of control and 169 % of control
T/C (dose: 3.0 mg/kg/injection, schedule: Q01DX009 (ip), vehicle: saline with Tween-80): 163 % of control
T/C (dose: 3.0 mg/kg/injection, schedule: Q01DX009 (oral), vehicle: Klucel (hydroxypropylcellulose) (HPC)): 108 % of control
T/C (dose: 3.0 mg/kg/injection, schedule: Q01DX009 (oral), vehicle: saline): 102 % of control
T/C (dose: 5.0 mg/kg/injection, schedule: Q01DX001 (iv), vehicle: other): 105 % of control
T/C (dose: 5.0 mg/kg/injection, schedule: Q01DX001 (oral), vehicle: other): 99 % of control
T/C (dose: 5.0 mg/kg/injection, schedule: Q01DX005 (iv), vehicle: clinical formulation): 156 % of control
T/C (dose: 5.0 mg/kg/injection, schedule: Q01DX005 (iv), vehicle: other): 113 % of control
T/C (dose: 5.0 mg/kg/injection, schedule: Q01DX005 (oral), vehicle: other): 99 % of control
T/C (dose: 5.0 mg/kg/injection, schedule: Q01DX009 (ip), vehicle: other): 175 % of control
T/C (dose: 5.0 mg/kg/injection, schedule: Q01DX009 (oral), vehicle: other): 114 % of control
T/C (dose: 6.0 mg/kg/injection, schedule: Q01DX005 (ip), vehicle: suspension in saline): 164 % of control
T/C (dose: 6.0 mg/kg/injection, schedule: Q01DX005 (iv), vehicle: suspension in saline): 108 % of control
T/C (dose: 6.0 mg/kg/injection, schedule: Q01DX009 (ip), vehicle: other): 157 % of control
T/C (dose: 6.0 mg/kg/injection, schedule: Q01DX009 (oral), vehicle: Klucel (hydroxypropylcellulose) (HPC)): 102 % of control
T/C (dose: 6.0 mg/kg/injection, schedule: Q01DX009 (oral), vehicle: saline): 108 % of control
T/C (dose: 6.25 mg/kg/injection, schedule: Q01DX009 (oral), vehicle: Klucel (hydroxypropylcellulose) (HPC)): 112 % of control and 113 % of control
T/C (dose: 8.0 mg/kg/injection, schedule: Q01DX001 (ip), vehicle: suspension in saline): 108 % of control and 116 % of control
T/C (dose: 10.0 mg/kg/injection, schedule: Q01DX001 (iv), vehicle: other): 116 % of control
T/C (dose: 10.0 mg/kg/injection, schedule: Q01DX001 (oral), vehicle: other): 107 % of control
T/C (dose: 10.0 mg/kg/injection, schedule: Q01DX005 (iv), vehicle: clinical formulation): 104 % of control
T/C (dose: 10.0 mg/kg/injection, schedule: Q01DX005 (oral), vehicle: other): 112 % of control
T/C (dose: 10.0 mg/kg/injection, schedule: Q01DX009 (ip), vehicle: clinical formulation): 170 % of control
T/C (dose: 10.0 mg/kg/injection, schedule: Q01DX009 (ip), vehicle: saline with Tween-80): 121 % of control
T/C (dose: 10.0 mg/kg/injection, schedule: Q01DX009 (oral), vehicle: other): 116 % of control
T/C (dose: 12.0 mg/kg/injection, schedule: Q01DX005 (ip), vehicle: saline): 163 % of control and 167 % of control
T/C (dose: 12.0 mg/kg/injection, schedule: Q01DX009 (ip), vehicle: Klucel (hydroxypropylcellulose) (HPC)): 121 % of control
T/C (dose: 12.0 mg/kg/injection, schedule: Q01DX009 (ip), vehicle: other): 168 % of control
T/C (dose: 12.0 mg/kg/injection, schedule: Q01DX009 (oral), vehicle: Klucel (hydroxypropylcellulose) (HPC)): 117 % of control
T/C (dose: 12.0 mg/kg/injection, schedule: Q01DX009 (oral), vehicle: other): 100 % of control
T/C (dose: 12.0 mg/kg/injection, schedule: Q01DX009 (oral), vehicle: saline): 110 % of control
T/C (dose: 12.5 mg/kg/injection, schedule: Q01DX009 (oral), vehicle: Klucel (hydroxypropylcellulose) (HPC)): 115 % of control and 120 % of control
T/C (dose: 15.0 mg/kg/injection, schedule: Q01DX009 (ip), vehicle: Klucel (hydroxypropylcellulose) (HPC)): 100 % of control
T/C (dose: 16.0 mg/kg/injection, schedule: Q01DX001 (ip), vehicle: suspension in saline): 104 % of control
T/C (dose: 20.0 mg/kg/injection, schedule: Q01DX001 (ip), vehicle: other): 151 % of control
T/C (dose: 20.0 mg/kg/injection, schedule: Q01DX001 (iv), vehicle: other): 122 % of control
T/C (dose: 20.0 mg/kg/injection, schedule: Q01DX001 (oral), vehicle: other): 104 % of control
T/C (dose: 20.0 mg/kg/injection, schedule: Q01DX005 (oral), vehicle: other): 109 % of control
T/C (dose: 24.0 mg/kg/injection, schedule: Q01DX005 (ip), vehicle: saline): 181 % of control
T/C (dose: 24.0 mg/kg/injection, schedule: Q01DX005 (iv), vehicle: suspension in saline): 117 % of control
T/C (dose: 24.0 mg/kg/injection, schedule: Q01DX009 (oral), vehicle: Klucel (hydroxypropylcellulose) (HPC)): 122 % of control
T/C (dose: 24.0 mg/kg/injection, schedule: Q01DX009 (oral), vehicle: other): 107 % of control
T/C (dose: 24.0 mg/kg/injection, schedule: Q01DX009 (oral), vehicle: saline): 113 % of control
T/C (dose: 25.0 mg/kg/injection, schedule: Q01DX001 (ip), vehicle: Klucel (hydroxypropylcellulose) (HPC)): 168 % of control
T/C (dose: 25.0 mg/kg/injection, schedule: Q01DX001 (ip), vehicle: saline): 175 % of control
T/C (dose: 32.0 mg/kg/injection, schedule: Q01DX001 (ip), vehicle: suspension in saline): 101 % of control
T/C (dose: 32.0 mg/kg/injection, schedule: Q01DX001 (oral), vehicle: suspension in saline): 100 % of control
T/C (dose: 40.0 mg/kg/injection, schedule: Q01DX001 (ip), vehicle: other): 181 % of control
T/C (dose: 40.0 mg/kg/injection, schedule: Q01DX001 (oral), vehicle: other): 101 % of control
T/C (dose: 40.0 mg/kg/injection, schedule: Q01DX005 (oral), vehicle: other): 118 % of control
T/C (dose: 40.0 mg/kg/injection, schedule: Q01DX009 (oral), vehicle: other): 115 % of control
T/C (dose: 48.0 mg/kg/injection, schedule: Q01DX009 (oral), vehicle: Klucel (hydroxypropylcellulose) (HPC)): 119 % of control
T/C (dose: 48.0 mg/kg/injection, schedule: Q01DX009 (oral), vehicle: other): 103 % of control
T/C (dose: 48.0 mg/kg/injection, schedule: Q01DX009 (oral), vehicle: saline): 119 % of control
T/C (dose: 50.0 mg/kg/injection, schedule: Q01DX009 (oral), vehicle: Klucel (hydroxypropylcellulose) (HPC)): 155 % of control
T/C (dose: 64.0 mg/kg/injection, schedule: Q01DX001 (ip), vehicle: saline): 163 % of control
T/C (dose: 64.0 mg/kg/injection, schedule: Q01DX001 (ip), vehicle: suspension in saline): 101 % of control
T/C (dose: 64.0 mg/kg/injection, schedule: Q01DX001 (oral), vehicle: saline): 99 % of control
T/C (dose: 64.0 mg/kg/injection, schedule: Q01DX001 (oral), vehicle: suspension in saline): 106 % of control and 108 % of control
T/C (dose: 96.0 mg/kg/injection, schedule: Q01DX009 (oral), vehicle: other): 107 % of control
T/C (dose: 100.0 mg/kg/injection, schedule: Q01DX009 (oral), vehicle: Klucel (hydroxypropylcellulose) (HPC)): 120 % of control
T/C (dose: 128.0 mg/kg/injection, schedule: Q01DX001 (oral), vehicle: saline): 99 % of control
T/C (dose: 128.0 mg/kg/injection, schedule: Q01DX001 (oral), vehicle: suspension in saline): 102 % of control and 109 % of control
T/C (dose: 256.0 mg/kg/injection, schedule: Q01DX001 (oral), vehicle: saline): 107 % of control
T/C (dose: 256.0 mg/kg/injection, schedule: Q01DX001 (oral), vehicle: suspension in saline): 103 % of control and 105 % of control
